The text below walks through data of publication PMC6688508 (Journal of medicinal chemistry, 2019).

Data set [1] can be described thus: Mouse pharmacokinetic study, plasma and brain. The class given is in vivo, male Swiss Albino mice. The conditions noted are these: mice.
Data set [2] deals with T1, MOR (Homo sapiens, UniProt P35372). The note with it: in vitro; cited from earlier work.
The target of data set [3] is T1, MOR. The note with it: in vitro; cited from earlier work. The source holds these as a separate data set.
Data set [4] addresses T2, human D1 (Homo sapiens, UniProt P21728). Put plainly: BRET β-arrestin2 recruitment assay. The conditions noted are these: D1R BRET assay. Background: Bioluminescence resonance energy transfer reports proximity on the nanometre scale.
Data set [5] has as its target T2, human D1. Put plainly: D1R GS-mediated GS-cAMP accumulation assay. In general terms: cAMP levels reflect the balance of adenylyl cyclase and phosphodiesterase activity.
Where [6] appears, read: 50 mg/kg intraperitoneal injection.

T2 sequence (P21728 whole entry): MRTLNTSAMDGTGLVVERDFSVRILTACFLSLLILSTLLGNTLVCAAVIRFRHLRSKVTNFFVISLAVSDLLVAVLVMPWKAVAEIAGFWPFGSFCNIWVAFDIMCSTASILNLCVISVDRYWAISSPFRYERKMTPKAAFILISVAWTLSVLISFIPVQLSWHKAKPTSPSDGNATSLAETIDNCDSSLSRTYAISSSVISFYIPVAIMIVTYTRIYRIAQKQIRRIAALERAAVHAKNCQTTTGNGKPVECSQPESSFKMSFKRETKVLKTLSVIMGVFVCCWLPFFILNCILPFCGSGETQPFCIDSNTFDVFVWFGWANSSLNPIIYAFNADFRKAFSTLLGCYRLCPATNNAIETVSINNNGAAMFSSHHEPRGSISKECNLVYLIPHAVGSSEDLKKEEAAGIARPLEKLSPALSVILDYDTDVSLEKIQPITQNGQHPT
T1 sequence (P35372 whole entry): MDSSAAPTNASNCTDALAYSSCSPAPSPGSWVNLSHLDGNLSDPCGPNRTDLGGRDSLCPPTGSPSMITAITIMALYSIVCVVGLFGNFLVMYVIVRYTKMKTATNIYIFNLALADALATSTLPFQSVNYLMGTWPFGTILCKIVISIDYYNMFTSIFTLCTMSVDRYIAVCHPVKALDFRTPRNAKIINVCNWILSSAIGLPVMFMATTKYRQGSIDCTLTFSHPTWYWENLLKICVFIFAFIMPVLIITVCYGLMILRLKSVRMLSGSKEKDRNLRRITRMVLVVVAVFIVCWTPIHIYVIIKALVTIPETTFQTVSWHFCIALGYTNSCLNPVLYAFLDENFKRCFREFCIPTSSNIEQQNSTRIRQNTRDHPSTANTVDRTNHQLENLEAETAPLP

`Nc1cc(Oc2nccc3occc23)ccc1-c1cccc2nccn12` [Compound 40, 5-(Furo[3,2-c]pyridin-4-yloxy)-2-(imidazo[1,2-a]pyridin-5-yl)-aniline]: in data set [1] (50 mg/kg intraperitoneal), the “tolerability / clinical signs” value is “well tolerated and no clinical signs were observed”. In data set [1] (setting [6]), the “peak concentration in the brain” value is “approximately 100 μM” and the “peak concentration in the plasma” value is recorded as “approximately 100 μM”.
Turning to `COc1ccsc1CNCC[C@@]1(c2ccccn2)CCOC2(CCCC2)C1` [TRV130], the “EMAX, activation of G protein signaling” value in data set [2] is recorded as 84%. In data set [3], the “EMAX, recruiting β-arrestin” value is 15%.
For the compound `Cc1cc(Oc2nccc3occc23)ccc1-c1c(C)cnnc1C` [Compound 9, 4-(4-(3,5-Dimethylpyridazin-4-yl)-3-methylphenoxy)furo[3,2-c]-pyridine], the “β-arrestin2 recruitment activity in words” value in data set [4] is given as “not active in the β-arrestin2 recruitment assay”. The EC50 in data set [5] was 1 nM.

What is called EC50 is the concentration giving half of the maximal effect. The low end stands for greater potency, the high end for weaker potency.
